Three compounds from ChEMBL document CHEMBL1146485, “Plant substances as anti-HIV agents selected according to their putative mechanism of action” (J Nat Prod, 2004) can be followed below.

Series [1] is described as follows: Elimination half life in po dosed human. Format: ADME, organism-based. Conditions: in vivo, read-out: beta t1/2 (converted).
Series [2] has as its system Human immunodeficiency virus 1. The series can be described thus: Selectivity for HIV1 integrase over HIV1 reverse transcriptase.

Take `CCCc1cc(=O)oc2c3c(c4c(c12)OC(C)(C)C=C4)O[C@H](C)[C@@H](C)[C@@H]3O` [CALANOLIDE A]: the half-life in series [1] is 15 h.

On to `O=C(/C=C/c1ccc(O)c(O)c1)O[C@@H](C(=O)O)[C@@H](OC(=O)/C=C/c1ccc(O)c(O)c1)C(=O)O`, for which the fold change (FC) in series [2] was determined as 10.

Consider `O=C(/C=C/c1ccc(O)c(O)c1)O[C@@H]1C[C@](O)(C(=O)O)C[C@@H](OC(=O)/C=C/c2ccc(O)c(O)c2)[C@H]1O`, for which, in series [2], the fold change (FC) was 10.
